Entries after “also recorded” stand apart in the source; their conditions may differ.
Experiments:
[1] = molecular target: T1, FPR2/ALX-transfected HL60 (Homo sapiens, UniProt P25090); assay: Ca2+ flux in FPR2/ALX-transfected HL60 cells; assay type: cell-based
T1 sequence (P25090 1-351): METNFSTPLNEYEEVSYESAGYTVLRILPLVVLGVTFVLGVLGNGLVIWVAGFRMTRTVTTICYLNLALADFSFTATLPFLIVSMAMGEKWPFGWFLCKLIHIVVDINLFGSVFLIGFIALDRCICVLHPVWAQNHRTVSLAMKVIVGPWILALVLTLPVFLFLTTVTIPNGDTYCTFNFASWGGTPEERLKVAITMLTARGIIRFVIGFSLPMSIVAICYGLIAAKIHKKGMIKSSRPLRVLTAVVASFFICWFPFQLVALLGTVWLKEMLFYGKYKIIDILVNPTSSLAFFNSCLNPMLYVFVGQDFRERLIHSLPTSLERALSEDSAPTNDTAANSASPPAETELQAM

[2] = system: mice, cows, pigs, dogs, and cats; conditions: ref Styrt, 1989; cited from earlier work
FPR1-transfected HL60 = assay: Ca2+ flux in FPR1-transfected HL60 cells; assay type: cell-based, human; conditions: 62.5-500 nM formylated PSMs, 2 µM non-formylated PSMs; fMLF 20 nM
human neutrophils [3] = molecular target: T2, human neutrophils (Homo sapiens, UniProt P25090); assay: Ca2+ flux in human neutrophils; assay type: cell-based; conditions: 37°C; for pEC50, calcium ion flux: human neutrophils, Fluo-3-AM, flow cytometry, means +/- SD of at least three independent experiments, nonlinear regression, 11-18 points
T2 sequence (P25090 1-351): T1 sequence (P25090 1-351)

human FPR2/ALX = conditions: ref Karlsson et al., 2006; Onnheim et al., 2008; cited from earlier work
[4] = system: mouse FPR paralog (Fpr-rs2); conditions: ref Karlsson et al., 2006; Onnheim et al., 2008; cited from earlier work
[5] = system: peritoneal granulocyte infiltration, S. aureus USA300; assay: Mouse peritonitis model, S. aureus USA300; assay type: in vivo; conditions: WRW4 prior to infection, two-hours infection period
mouse neutrophils = assay: Ca2+ flux in mouse neutrophils; assay type: cell-based; conditions: calcium flux
human neutrophils [6] = molecular target: T2, human neutrophils; assay: Neutrophil chemotaxis; assay type: cell-based; conditions: 3-µm trans-well filter, fluorescence-labeled neutrophils

Which “calcium flux activation of FPR2/ALX-transfected HL60” value ([1]; 62.5 nM (formylated PSMα3), 125 nM (formylated PSMα2), 250 nM (formylated δ-toxin, PSM-mec), 500 nM (formylated PSMsα1, α4, β1, β2), 2 µM (non-formylated PSMs), MMK1 10 nM) does the source give for LESIFRSLLFRVM-NH2 [MMK1] here?
Its value is “responded”.

With fMLF as the molecule, how does the “response to fMLF” value [2] read?
The value was “hardly respond”.

And the “calcium flux activation of FPR1-transfected HL60” value (FPR1-transfected HL60)?
Its value is “responded”.

For CSCC[C@H](N)C(=O)N[C@@H](CCC(=O)O)C(=O)N[C@@H](Cc1ccccc1)C(=O)N[C@H](C(=O)N[C@@H](C)C(=O)N[C@@H](CCCCN)C(=O)N[C@@H](CC(C)C)C(=O)N[C@@H](Cc1ccccc1)C(=O)N[C@@H](CCCCN)C(=O)N[C@@H](Cc1ccccc1)C(=O)N[C@@H](Cc1ccccc1)C(=O)N[C@@H](CCCCN)C(=O)N[C@@H](CC(=O)O)C(=O)N[C@@H](CC(C)C)C(=O)N[C@@H](CC(C)C)C(=O)NCC(=O)N[C@@H](CCCCN)C(=O)N[C@@H](Cc1ccccc1)C(=O)N[C@@H](CC(C)C)C(=O)NCC(=O)N[C@@H](CC(N)=O)C(=O)N[C@@H](CC(N)=O)C(=O)O)C(C)C [PSMα3, non-formylated], which EC50 [1] is on record?
The EC50 was 257 nM.

What about the “pEC50, calcium ion flux” value (human neutrophils [3]) of the same molecule?
Its value is 5.19 ± 0.24.

Which results are given for WRWWWW-NH2 [WRW4]?
inhibition of human FPR2/ALX (human FPR2/ALX): an inhibitor of human FPR2/ALX; inhibition of mouse FPR paralog Fpr-rs2 [4]: inhibitor; effect on numbers of live bacteria [5]: no impact; effect of WRW4 on mouse neutrophil stimulation by fMLF (mouse neutrophils; fMLF 500 nM): not affected; effect of WRW4 on mouse neutrophil stimulation by MMK1 and PSMs (mouse neutrophils; formylated PSMα3 250 nM, PSMα2 12.5 nM, δ-toxin 50 nM, MMK1 500 nM): potent antagonistic effect; also recorded: blocks

With CC[C@H](C)[C@H](NC(=O)[C@H](Cc1c[nH]c2ccccc12)NC(=O)[C@H](CCCCN)NC(=O)[C@@H](NC(=O)[C@H](CC(C)C)NC(=O)[C@H](CC(=O)O)NC(=O)[C@H](CO)NC(=O)[C@@H](NC(=O)[C@@H](NC(=O)[C@H](CO)NC(=O)[C@@H](NC(=O)[C@@H](NC(=O)[C@H](CC(=O)O)NC(=O)[C@H](CCC(N)=O)NC(=O)[C@H](C)NC(=O)[C@@H](N)CCSC)[C@@H](C)CC)[C@@H](C)CC)[C@@H](C)O)[C@@H](C)CC)C(C)C)C(=O)N[C@H](C(=O)N[C@@H](CC(=O)O)C(=O)N[C@H](C(=O)N[C@H](C(=O)N[C@@H](CC(N)=O)C(=O)N[C@@H](CCCCN)C(=O)N[C@@H](Cc1ccccc1)C(=O)N[C@H](C(=O)N[C@@H](CCCCN)C(=O)N[C@@H](CCCCN)C(=O)O)[C@@H](C)O)C(C)C)[C@@H](C)O)[C@@H](C)CC [δ-Toxin, non-formylated] as the molecule, how does the EC50 [1] read?
Its EC50 is 479 nM.

What about the “pEC50, calcium ion flux” value (human neutrophils [3]) of the same molecule?
Its value is 5.20 ± 0.14.

Which “effect of pertussis toxin on PSM-induced calcium flux” value (human neutrophils [3]; PTX 1 µg/ml, three hours, 5% CO2) does the source give for pertussis toxin here?
The value was “sensitive; also recorded: blocked”.

For “MDFTGVITSIIDLIKTCIQAFG [PSM-mec, formylated]”, which “chemotaxis of human neutrophils” value (human neutrophils [6]) is on record?
The value was “induce chemotaxis”.

From PMC3417054 (Cell host & microbe, 2010)
